According to patent US11524966B1 (Valo Early Discovery, Inc., priority 2017, dated 2022):
Like-named read-outs stand apart in the source and are kept apart here.

Target: T1, USP28 (His-tagged USP28-FL-mammalian) (Homo sapiens, UniProt Q96RU2)
T1 construct: Expression of USP28 (1-1077)-TEV-6*His (pTT5 vector); made in house; host or cells: Expi293f cells (pTT5 vector)
T1 sequence (Q96RU2 1-1077): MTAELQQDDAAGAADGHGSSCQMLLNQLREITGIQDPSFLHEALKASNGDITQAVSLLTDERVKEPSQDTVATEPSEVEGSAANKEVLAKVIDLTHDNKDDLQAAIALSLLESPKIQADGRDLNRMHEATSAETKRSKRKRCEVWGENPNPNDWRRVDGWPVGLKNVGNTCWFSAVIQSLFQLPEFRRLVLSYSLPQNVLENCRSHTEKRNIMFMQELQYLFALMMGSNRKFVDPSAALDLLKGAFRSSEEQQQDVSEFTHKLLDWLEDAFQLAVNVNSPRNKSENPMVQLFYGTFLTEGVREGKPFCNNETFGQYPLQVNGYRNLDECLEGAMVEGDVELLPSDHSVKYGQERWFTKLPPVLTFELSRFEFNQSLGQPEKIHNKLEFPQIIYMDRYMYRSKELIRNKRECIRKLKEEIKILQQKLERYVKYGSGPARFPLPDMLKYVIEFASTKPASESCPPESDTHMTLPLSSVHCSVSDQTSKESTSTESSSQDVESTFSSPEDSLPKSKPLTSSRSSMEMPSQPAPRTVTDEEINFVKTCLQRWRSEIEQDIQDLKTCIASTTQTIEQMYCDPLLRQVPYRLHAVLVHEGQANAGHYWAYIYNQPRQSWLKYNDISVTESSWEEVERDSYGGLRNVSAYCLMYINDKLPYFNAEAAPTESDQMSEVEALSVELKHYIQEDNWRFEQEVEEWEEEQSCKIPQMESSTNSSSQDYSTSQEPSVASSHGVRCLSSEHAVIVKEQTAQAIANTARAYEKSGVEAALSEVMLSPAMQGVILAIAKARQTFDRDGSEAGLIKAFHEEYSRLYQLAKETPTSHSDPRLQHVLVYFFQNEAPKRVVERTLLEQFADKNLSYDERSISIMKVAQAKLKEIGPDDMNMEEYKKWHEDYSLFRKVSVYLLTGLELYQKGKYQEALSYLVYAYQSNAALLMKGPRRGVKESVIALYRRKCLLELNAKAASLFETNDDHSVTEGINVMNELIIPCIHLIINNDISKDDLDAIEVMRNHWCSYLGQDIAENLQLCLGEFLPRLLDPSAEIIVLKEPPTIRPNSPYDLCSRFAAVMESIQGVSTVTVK
Assay: Ubiquitin-Rhodamine 110 Assay for USP28 Activity, Example A-1(a)
Format: biochemical
Conditions: Ubiquitin-Rhodamine 110 assay, read-out: USP28 A-1(a) IC50 range
Summary of the method: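 Full-length His-tagged USP28 (1-1077, Expi293F-expressed; […]) was preincubated 30 min with compound (25 μM–1.3 nM, 10-point 3-fold) in 20 mM Tris-HCl pH 8.0, 3 mM BME, 0.03% BGG, 0.01% Triton X-100. Ub-Rh110 (25 nM) was then added for 45 min at room temperature, stopped with citric acid, and read by fluorescence (485/535 nm).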

SMILES	IC50 (format Example A-1(a)) [nM]	IC50 (Example A-1(a)) [nM]
Cc1ccc2c(N)c(C(=O)N[C@@H]3CCc4c(F)c(N5CC6CNCC(C5)O6)cc(F)c4C3)sc2n1 (single isomer, unassigned) [Example 22-4]	1 to 50	–
Cc1cc(C)c2c(N)c(C(=O)N[C@H]3COc4cc(N5CC6CC(C5)N6)cc(F)c4C3)sc2n1 [Example 10-7, N-((3R)-7-(3,6-diazabicyclo[3.1.1]heptan-3-yl)-5-fluorochroman-3-yl)-3-amino-4,6-dimethylthieno[2,3-b]pyridine-2-carboxamide]	–	1 to 50
Cc1ccc2c(N)c(C(=O)N[C@@H]3CCc4c(ccc(N5CCNCC5)c4F)C3)sc2n1 (single isomer, unassigned) [Example 21-5]	1 to 50	–
Cc1ccc2c(N)c(C(=O)N[C@H]3COc4cc(N5CC6CCC(C5)N6)nc(F)c4C3)sc2n1 [Example 17, N-((3R)-7-(3,8-Diazabicyclo[3.2.1]octan-3-yl)-5-fluoro-3,4-dihydro-2H-pyrano[3,2-c]pyridin-3-yl)-3-amino-6-methylthieno[2,3-b]pyridine-2-carboxamide]	1 to 50	–
Cc1cc(C)c2c(N)c(C(=O)N[C@H]3COc4cc(N5CC6CNCC(C5)O6)cc(F)c4C3)sc2n1 [Example 10-13, N-((3R)-7-(9-oxa-3,7-diazabicyclo[3.3.1]nonan-3-yl)-5-fluorochroman-3-yl)-3-amino-4,6-dimethylthieno[2,3-b]pyridine-2-carboxamide]	–	1 to 50
CO[C@H]1CN(c2ccc3c(n2)CC[C@@H](NC(=O)c2sc4nc(C)cnc4c2N)C3)C[C@@H]1N (single isomer, unassigned) [Example 23-2]	> 2000	–
Cc1ccc2c(N)c(C(=O)N[C@@H]3CCc4cc(N5CC6CCC(C5)N6)ccc4C3)sc2n1 [Example 11-2, N-((2R)-6-(3,8-diazabicyclo[3.2.1]octan-3-yl)-1,2,3,4-tetrahydronaphthalen-2-yl)-3-amino-6-methylthieno[2,3-b]pyridine-2-carboxamide]	–	50 to 200
Cc1ccc2c(N)c(C(=O)N[C@@H]3COc4cc(N5CCNCC5)c(Cl)cc4C3)sc2n1 (single isomer, unassigned) [Example 13-6]	1 to 50	–
Cc1ccc2c(N)c(C(=O)N[C@H]3CCc4cc(N5CCN[C@@H](CO)C5)ccc4C3)sc2n1 (single isomer, unassigned) [Example 7-9]	–	200 to 2000
Cc1ccc2c(N)c(C(=O)N[C@H]3CCc4c(F)c(N5CC6CNCC(C5)O6)cc(F)c4C3)sc2n1 (single isomer, unassigned) [Example 22-3]	200 to 2000	–
Cc1cc(C)c2c(N)c(C(=O)N[C@H]3COc4cc(N5CCNCC5)cc(F)c4C3)sc2n1 [Example 10-9, (R)-3-amino-N-(5-fluoro-7-(piperazin-1-yl)chroman-3-yl)-4,6-dimethylthieno[2,3-b]pyridine-2-carboxamide]	–	1 to 50
